We go through four compounds from US10798893B2, “Induced chromosome doubling in plants” (Dow AgroSciences LLC, priority 2009, dated 2020).

Series [1] has as its system germinated haploid maize seedlings. Put plainly: Foliar spray treatment of germinated haploid maize seedlings in soil at V1-V3 stage. It counts as in vivo. How it is done: Haploid maize seeds were planted in Sun Gro METRO-MIX® 306 planting mixture, which typically has a pH of 6.0 to 6.8 and an organic matter content of about 30 percent, in 72-well, plastic propagation flats (Dillen Products; Middlefield Ohio). When required to ensure good germination and healthy plants, a fungicide treatment and/or other chemical or physical treatment was applied. The plants were grown in a greenhouse with an approximate 15 hour photoperiod which was maintained at about 23-29° C. during the day and 22-28° C. during the night until they reached the V1-V3 growth stage. Nutrients and water were added on a regular basis and supplemental lighting was provided with overhead metal halide 1000-Watt lamps as necessary.
A weighed amount of compound 1, determined by the rate to be tested, was dissolved in 1.2 mL of dimethyl sulfoxide (DMSO) to obtain concentrated stock solutions. […] The concentrated stock solutions obtained were diluted with 10.8 mL of an aqueous mixture containing 1.25% v/v (volume/volume) Agri-dex Crop Oil Concentrate. Compound requirements are based upon a 12 mL application volume at a rate of 187 L/ha. Formulated compounds were applied to the plant material with an overhead Mandel track sprayer equipped with a 8002E nozzle calibrated to deliver 187 L/ha over an application area of 0.503 square meter at a spray height of 18 inches ([…]) above the average plant canopy height. Control plants were sprayed in the same manner with the solvent blank.
The treated plants and control plants were placed in a greenhouse, as described above, and watered by sub-irrigation to prevent wash-off of the test compounds. Approximately 14 days after treatment, the treated plants were transplanted to individual pots containing Sun Gro METRO-MIX® 360. Plants that produced tassels and silk were then self-pollinated to obtain dihaploid seed.
Table 3 illustrates the results of doubling rate after spray treatment with the chemicals of interest. […] The spray treated plant tassels and silks were synchronized well and the plants shed more pollen.

The test system of series [2] is haploid germinated maize seedlings. The text has this:
An exemplary cycloalkene, 1,2,3-Trimethoxy-4-(1S,6R)-6-nitro-cyclohex-3-enyl)-benzene, designated as compound 1 was used to determine double haploid efficiency, doubling rate by a coleoptile tip cutting, seedling soaking method. […] Data provided in Tables 1, 2 and 3 were generated using haploid seeds obtained through cross pollination of a maize line of interest with an inducer maize line.
The resulting maize seeds were sorted based on marker gene color.
Coleoptile tips in maize seedlings were cut and the seedlings were soaked in various chromosome doubling agents as shown in Table 1. Haploid maize seeds were germinated and the coleoptile tips were excised (1-2 mm). Seedlings that survived were transplanted and grown until tassels and silk formed. Plants that produced tassels and silk were self-pollinated. Seeds produced from the self-pollination were visually assessed for the marker to identify them as double haploid (dihaploid).

In a further series the test system is rats. Put plainly: Dermal toxicity on rats. It counts as in vivo, rat. To be noted: 200 mg/kg.
A further series has as its system rabbit. The conditions noted are these: cited from earlier work.
[3] abbreviates: after transplanting, rate 25 μM.
Where [4] appears, read: after transplanting, rate 125 μM.
Setting [5] is: seedling soak, colchicine 0.06% w/v (rate cell empty).

SMILES strings stand for the structures. Like-named read-outs stand apart in the source and are kept apart here.

Regarding `C#CC(C)(C)NC(=O)c1cc(Cl)cc(Cl)c1` [Pronamide, pronamide], the “# plants dead after treatment” value is recorded as 0 in series [1] (spray, 35 g ai/ha) and 0 in series [1] (spray, 140 g ai/ha). Further, the “No. plants dead after TP” value turned out to be 3 in series [2] (after transplanting, rate 5 μM); 1 in series [2] (setting [3]); 0 in series [2] (setting [4]).
Turning to `CC(C)OC(=O)Nc1cccc(Cl)c1` [Chlorpropham, chlorpropham], the “# plants dead after treatment” value in series [1] (spray, 70 g ai/ha) worked out at 0; in series [1] (spray, 280 g ai/ha), 1. Further, the “No. plants dead after TP” value was determined as 0 in series [2] (after transplanting, rate 5 μM); 0 in series [2] (setting [3]); 0 in series [2] (setting [4]).
In the case of `COc1ccc([C@@H]2CC=CC[C@H]2[N+](=O)[O-])c(OC)c1OC` [Compound 1, 1,2,3-Trimethoxy-4-((1S,6R)-6-nitro-cyclohex-3-enyl)-benzene], the dermal toxicity entry with rats is recorded as “No dermal toxicity was observed”. In addition, the “# plants dead after treatment” value in series [1] (maize, in vivo) worked out at 0. Besides, the “No. plants dead after TP” value in series [2] (maize, in vivo, 5 μM) is 2; in series [2] (maize, in vivo, 25 μM) it was 2; in series [2] (maize, in vivo, 125 μM), 2.
Regarding `COc1cc2c(c(OC)c1OC)-c1ccc(OC)c(=O)cc1[C@@H](NC(C)=O)CC2` [Colchicine, colchicine], in the series with rabbit, the Eye irritation entry was “about 1 %/3D”. In series [2] (after transplanting, colchicine 0.06% w/v (rate cell empty)), the “No. plants dead after TP” value is recorded as 0. In series [2] (setting [5]), this compound returned a No. plants alive of 38 and a No. plants dead of 27.
